Measured values: patent US20110152091A1, “Herbicidal Compositions Comprising Flufenacet” (BAYER CROPSCIENCE AG, priority 2009, published 2011)

Tests used:
Format in all cases: in vivo
[1] = system: Hordeum vulgare, summer barley (HORVS); experiment: Greenhouse trial: PO application, crop plant (test methods 2 and 5); details: g of AS/ha: A 240, B 120, C 140, mixture 240 + 120 + 140
Method: (§1) In the standard design of the test, seeds of various broad-leaved weed and weed grass biotypes (origins) were sown in a 8-13 cm diameter pot filled with natural soil of a standard field soil (loamy silt; non-sterile) and covered with a covering soil layer of about 1 cm. The pots were then cultivated in a greenhouse (12-16 h of light, temperature day 20-22° C., night 15-18° C.) until the time of application. The pots were treated on a laboratory track sprayer with spray liquors comprising the compositions according to the invention, mixtures of the prior art or components used individually. Application of the active compounds or active compound combinations formulated as WG, WP, EC or otherwise was carried out at the appropriate growth stages of the plants. The application rate for the spray application was 100-600 l of water/ha. After the treatment, the plants were returned to the greenhouses.
(§2) About 3 weeks after the application, the soil action or/and foliar action was assessed visually according to a scale of 0-100% in comparison to an untreated comparative group: 0%=no noticeable effect compared to the untreated comparative group; 100%=full effect compared to the untreated comparative group.
(notes: the term “seeds” also includes vegetative propagation forms such as, for example, rhizome pieces; abbreviations used: h light=hours of illumination, g of AS/ha=gram of active substance per hectare, l/ha=liter per hectare, S=sensitive, R=resistant) • 1. Pre-emergence action against weeds: seeds of various broad-leaved weed and weed grass biotypes (origins) were sown in a 8-13 cm diameter pot filled with natural soil of a standard field soil (loamy silt; non-sterile) and covered with a covering soil layer of about 1 cm. The pots were then cultivated in a greenhouse (12-16 h of light, temperature day 20-22° C., night 15-18° C.) until the time of application. […]

[2] = system: Apera Spica-venti (APESV); experiment: Greenhouse trial: PO application (test methods 2 and 5); details: g of AS/ha: A 240, B 120, C 140, mixture 240 + 120 + 140
Method: as §1
(§3) About 3 weeks after the application, the soil action or/and foliar action was assessed visually according to a scale of 0-100% in comparison to an untreated comparative group: 0%=no noticeable effect compared to the untreated comparative group; 100%=full effect compared to the untreated comparative group. […]

[3] = system: Hordeum vulgare, summer barley (HORVS); experiment: Greenhouse trial: different soil types, crop plant (test method 7); details: g of AS/ha: A 90, B 90, C 140, mixture 90 + 90 + 140
Method: as §1, §2
(§4) (notes: the term “seeds” also includes vegetative propagation forms such as, for example, rhizome pieces; abbreviations used: h light=hours of illumination, g of AS/ha=gram of active substance per hectare, l/ha=liter per hectare, S=sensitive, R=resistant) • 1. Pre-emergence action against weeds: seeds of various broad-leaved weed and weed grass biotypes (origins) were sown in a 8-13 cm diameter pot filled with natural soil of a standard field soil (loamy silt; non-sterile) and covered with a covering soil layer of about 1 cm. The pots were then cultivated in a greenhouse (12-16 h of light, temperature day 20-22° C., night 15-18° C.) until the time of application. The pots were treated at the BBCH stage 00-10 of the seeds/plants on a laboratory track sprayer with spray liquors comprising the compositions according to the invention, mixtures or components used individually, as WG, WP, EC or other formulations. The application rate for the spray application was 100-600 l of water/ha. After the treatment, the plants were returned to the greenhouses and, when required, treated with fertilizer and watered. • 2. Post-emergence action against weeds: seeds of various broad-leaved weed and weed grass biotypes (origins) were sown in a 8-13 cm diameter pot filled with natural soil of a standard field soil (loamy silt; non-sterile) and covered with a covering soil layer of about 1 cm. The pots were then cultivated in a greenhouse (12-16 h of light, temperature day 20-22° C., night 15-18° C.) until the time of application. The pots were treated at various BBCH stages between 11-25 of the seeds/plants, i.e. generally between two to three weeks after the start of the cultivation, on a laboratory track sprayer with spray liquors comprising the compositions according to the invention, mixtures or components used individually, as WG, WP, EC or other formulations. The application rate for the spray application was 100-600 l of water/ha. After the treatment, the plants were returned to the greenhouses and, when required, treated with fertilizer and watered. • 3. Pre-emergence action against weeds with and without incorporation of active compound: seeds of various broad-leaved weed and weed grass biotypes (origins) were sown in a 8-13 cm diameter pot filled with natural soil of a standard field soil (loamy silt; non-sterile). […]

[4] = system: Hordeum vulgare, summer barley (HORVS); experiment: Greenhouse trial: different sowing depths on PE application, crop plant (test method 9); details: g of AS/ha: A 90, B 90, C 140, mixture 90 + 90 + 140; for activity HORVS 5 mm (visual, scale 0-100%): Sowing depth 5 mm; for activity HORVS 20 mm (visual, scale 0-100%): Sowing depth 20 mm
Method: as §1, §2, §4

[5] = system: Matricaria chamomilla (MATCH); experiment: Greenhouse trial: different soil types (test method 7); details: g of AS/ha: A 90, B 90, C 140, mixture 90 + 90 + 140
Method: as §1, §2, §4

Stellaria media (STEME) [6] = experiment: as above; details: g of AS/ha: A 90, B 90, C 140, mixture 90 + 90 + 140
Method: as §1, §2, §4

[7] = system: Hordeum vulgare, summer barley (HORVS); experiment: Greenhouse trial: different soil pH values on PE application, crop plant (test method 11); details: for activity HORVS pH 7.4 (visual, scale 0-100%): soil pH 7.4, g of AS/ha: A 90, B 90, C 140, mixture 90 + 90 + 140; for activity HORVS pH 8.4 (visual, scale 0-100%): soil pH 8.4, g of AS/ha: A 90, B 90, C 140, mixture 90 + 90 + 140
Method: as §1, §2, §4

Poa annua (POAAN) = experiment: Greenhouse trial: PE soil application vs incorporation into the soil (test methods 1, 3 and 4); details: g of AS/ha: A 75, B 60, C 70, mixture 75 + 60 + 70
Method: as §1, §2, §4

Stellaria media (STEME) [8] = experiment: as above; details: g of AS/ha: A 75, B 60, C 70, mixture 75 + 60 + 70
Method: as §1, §2, §4

[9] = system: Triticum aestivum, winter wheat (TRZAW); experiment: Greenhouse trial: PE soil application vs incorporation into the soil, crop plant (test methods 1, 3 and 4); details: g of AS/ha: A 75, B 60, C 70, mixture 75 + 60 + 70
Method: as §1, §2, §4

Avena fatua (AVEFA) [10] = experiment: Greenhouse trial: pre-sowing method vs PE application (test method 6); details: g of AS/ha: A 90, B 90, C 140, mixture 90 + 90 + 140
Method: as §1, §2, §4

Lolium perenne (LOLPE) = experiment: as above; details: g of AS/ha: A 90, B 90, C 140, mixture 90 + 90 + 140
Method: as §1, §2, §4

Avena fatua (AVEFA) [11] = experiment: Greenhouse trial: different soil pH values on PE application (test method 11); details: for activity AVEFA pH 7.4 (visual, scale 0-100%): soil pH 7.4, g of AS/ha: A 90, B 90, C 140, mixture 90 + 90 + 140; for activity AVEFA pH 8.4 (visual, scale 0-100%): soil pH 8.4, g of AS/ha: A 90, B 90, C 140, mixture 90 + 90 + 140
Method: as §1, §2, §4

[12] = system: Triticum aestivum, winter wheat (TRZAW); experiment: Greenhouse trial: pre-sowing method vs PE application, crop plant (test method 6); details: g of AS/ha: A 90, B 90, C 140, mixture 90 + 90 + 140
Method: as §1, §2, §4

[13] = system: Lolium species (LOLSS), sensitive and resistant biotypes; experiment: Greenhouse trial: resistant biotypes following PE application (test method 8); details: g of AS/ha: A 90, B 90, C 140, mixture 90 + 90 + 140, iodosulfuron 10
Method: as §1, §3

[14] = system: Matricaria chamomilla (MATCH); experiment: Greenhouse trial: different sowing depths on PE application (test method 9); details: g of AS/ha: A 90, B 90, C 140, mixture 90 + 90 + 140
Method: as §1, §3

[15] = Application 7 days prior to sowing

Compound | activity HORVS (visual, scale 0-100%) [1] | activity APESV (visual, scale 0-100%) [2] | activity HORVS IU soil (visual, scale 0-100%) [3] | activity HORVS IU/EC73 soil (visual, scale 0-100%) [3] | activity HORVS 5 mm (visual, scale 0-100%) [4] | activity HORVS 20 mm (visual, scale 0-100%) [4] | activity MATCH IU soil (visual, scale 0-100%) [5] | activity STEME IU soil (visual, scale 0-100%) (Stellaria media (STEME) [6]) | activity STEME IU/EC73 soil (visual, scale 0-100%) (Stellaria media (STEME) [6]) | activity HORVS pH 7.4 (visual, scale 0-100%) [7] | activity HORVS pH 8.4 (visual, scale 0-100%) [7] | activity POAAN (visual, scale 0-100%) (Poa annua (POAAN); Incorporation into the soil) | activity POAAN (visual, scale 0-100%) (Poa annua (POAAN); PE application) | activity TRZAW (visual, scale 0-100%) ([9]; Incorporation into the soil) | activity TRZAW (visual, scale 0-100%) ([9]; PE application) | activity LOLPE (visual, scale 0-100%) (Lolium perenne (LOLPE); PE application) | activity AVEFA pH 7.4 (visual, scale 0-100%) (Avena fatua (AVEFA) [11]) | activity AVEFA pH 8.4 (visual, scale 0-100%) (Avena fatua (AVEFA) [11]) | activity TRZAW (visual, scale 0-100%) [12, 15] | activity TRZAW (visual, scale 0-100%) ([12]; PE application) | also measured
CC(C)N(C(=O)COc1nnc(C(F)(F)F)s1)c1ccc(F)cc1 [(A) flufenacet, N-(4-fluorophenyl)-N-(1-methylethyl)-2-[[5-(trifluoromethyl)-1,3,4-thiadiazol-2-yl]oxy]acetamide] | 60% | 65% | 10% | 0% | 30% | 20% | 28% | 0% | 0% | 10% | 10% | 90% | 65% | 60% | 20% | 90% | 80% | 55% | 60% | 30% | activity STEME (visual, scale 0-100%) (Stellaria media (STEME) [8]; PE application): 0%; activity AVEFA (visual, scale 0-100%) (Avena fatua (AVEFA) [10]; PE application): 80%
O=C(Nc1ccc(F)cc1F)c1cccnc1Oc1cccc(C(F)(F)F)c1 [(B) diflufenican, N-(2,4-difluorophenyl)-2-[3-(trifluoromethyl)phenoxy]-3-pyridinecarboxamide] | 5% |  | 0% | 0% | 30% | 5% |  | 95% | 38% | 0% | 0% | 75% |  | 20% | 10% | 60% | 0% | 30% | 10% | 10% | activity LOLPE (visual, scale 0-100%) (Lolium perenne (LOLPE); [15]): 0%
CSc1nnc(C(C)(C)C)c(=O)n1N [(C) metribuzin, 4-amino-6-(1,1-dimethylethyl)-3-(methylthio)-1,2,4-triazin-5(4H)-one] | 70% | 79% | 0% | 0% | 70% | 30% | 0% | 75% | 5% | 40% | 50% | 15% | 0% | 55% | 30% | 50% | 90% | 90% | 0% | 55% | activity LOLSS resistant (visual, scale 0-100%) ([13]; resistant biotype): 70%; activity LOLSS sensitive (visual, scale 0-100%) ([13]; sensitive biotype): 70%; activity MATCH IU/EC73 soil (visual, scale 0-100%) ([5]; IU/EC73 soil): 15%; activity STEME (visual, scale 0-100%) (Stellaria media (STEME) [8]; Incorporation into the soil): 0%; activity STEME (visual, scale 0-100%) (Stellaria media (STEME) [8]; PE application): 75%; activity MATCH 5 mm (visual, scale 0-100%) ([14]; Sowing depth 5 mm): 100%; activity MATCH 20 mm (visual, scale 0-100%) ([14]; Sowing depth 20 mm): 70%; activity AVEFA (visual, scale 0-100%) (Avena fatua (AVEFA) [10]; [15]): 0%; activity AVEFA (visual, scale 0-100%) (Avena fatua (AVEFA) [10]; PE application): 10%; activity LOLPE (visual, scale 0-100%) (Lolium perenne (LOLPE); [15]): 10%
